The record followed here is patent publication US20240246959A1, “BENZIMIDAZOLE DERIVATIVE AND PREPARATION METHOD THEREFOR AND MEDICAL USE THEREOF” (Shenzhen Salubris Pharmaceuticals Co., Ltd., priority 2020, published 2024).

The structures appear in SMILES notation.

Broadly, the EC50 is the midpoint of the concentration-response curve. In general, AUC(0-t) refers to exposure summed from dosing to a finite time, without extrapolation to infinity. Low readings indicate low exposure, high ones high exposure. Broadly, the Cmax is the highest concentration seen after dosing. One may read the clearance as the rate of elimination divided by the concentration. For orientation: half-life means the time in which the quantity being followed falls by half. Read a low half-life as rapid decline.

In one data set the target is T1, human GLP-1 R (Homo sapiens, UniProt P43220).
T1 construct: expressed in transfected cells
T1 sequence (P43220 24-463): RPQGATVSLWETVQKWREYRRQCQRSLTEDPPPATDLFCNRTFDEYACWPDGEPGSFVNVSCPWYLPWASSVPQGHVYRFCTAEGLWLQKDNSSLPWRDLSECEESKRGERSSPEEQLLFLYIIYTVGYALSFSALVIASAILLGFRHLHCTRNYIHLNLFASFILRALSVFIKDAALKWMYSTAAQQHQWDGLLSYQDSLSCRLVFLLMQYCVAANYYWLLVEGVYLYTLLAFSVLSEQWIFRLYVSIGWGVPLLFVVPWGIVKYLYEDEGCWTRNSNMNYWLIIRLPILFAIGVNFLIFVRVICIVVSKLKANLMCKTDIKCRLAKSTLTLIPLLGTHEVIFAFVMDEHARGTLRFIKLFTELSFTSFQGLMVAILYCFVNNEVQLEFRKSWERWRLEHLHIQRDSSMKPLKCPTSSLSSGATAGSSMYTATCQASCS
Nature of the data set: cAMP signal activation in human GLP1R cells (hGLP1R-U2OS, HTRF). The class given is cell-based. The procedure:
A cell line stably expressing human GLP1 R (hGLP1R-U2OS) was used in this experiment. The cells were cultured in a growth medium (complete medium, DMEM+10% FBS+500 μg/mL G418 (Promega)) in an incubator at 37° C. and has 5% CO2 saturated humidity.
hGLP1R-U2OS was inoculated into 384-well plate with 1.0×10^4 cells/well (5 μL) (cell working solution: DMEM+0.1% BSA+1 mM IBMX (available from Bide Pharmatech Ltd.)), and was placed in an incubator at 37° C. and held for 30 min. The compounds to be tested were diluted stage-by-stage with Stimulation Buffer 1 (1×) in the kit, and the diluted compounds were added to the culture plate with 5 μL/well. They were incubated in an incubator at 37° C. for 30 min. Then, 5 μL/well of cAMP-d2 prepared with Lysis & Detection buffer and 5 μL/well of Anti CAMP-Cryptate working solution were added successively, and they were incubated at room temperature for 60 min before detection.
The ratio of signal emitted by donor to […] in each well was calculated as follows: HTRF rate=signal at 665 nm/signal at 620 nm×104, and then the HTRF rate was converted into a reaction rate (%). The concentration-response curve of each Example compound was created by a 4-parameter equation as Y=Bottom+(Top−Bottom)/(1+10^((Log IC50−X)*HillSlope)), and the half maximal (50%) effective concentration (EC50) was calculated.

Data set [1] can be described thus: Pharmacokinetic study on rat. The class given is in vivo, SD rats. Conditions: for F: 5 mg/kg p.o vs 1 mg/kg i.v; for AUC(0-t) / Cmax / clearance / half-life: male, Sprague-Dawley (SD), plasma. From the text:
• SD rats: male, 180-250 g, purchased from Beijing Vital River Laboratory Animal Technology Co., Ltd. • Reagents: DMSO (dimethyl sulfoxide), PEG-400 (polyethylene glycol 400), physiological saline, heparin, acetonitrile, formic acid, and propranolol (internal standard), all of which are commercially available. • Instruments: Thermo Fisher Scientific LC-MS (U300 UPLC, TSQ QUANTUMN ULTRA triple quadrupole mass spectrometer).
A compound was weighed and dissolved in a DMSO-PEG-400-physiological saline (5:60:35, v/v/v) system. After the rats were administered with the compound intravenously or by gavage, 200 μL of venous blood samples were collected at 15 min, 30 min, 1 h, 2 h, 5 h, 7 h, and 24 h (for i.v. group an additional collection was performed at 5 min) in heparinized EP tubes respectively, which were centrifuged at 12,000 rpm for 2 min, and the plasma was frozen at −80° C. for further testing. A certain amount of the test substance was precisely weighed and dissolved in DMSO to obtain a stock solution with a concentration of 2 mg/mL. An appropriate amount of the stock solution of the compound was accurately pipetted and diluted with acetonitrile to prepare a standard series solution. 20 μL of each of the above standard series solution was accurately pipetted, added with 180 μL of blank plasma, and vortexed mixed to prepare plasma samples corresponding to plasma concentrations of 0.3, 1, 3, 10, 30, 100, 300, 1000, 3000 ng/mL. Two-sample analysis was performed for each concentration to establish a standard curve. 30 μL of plasma (for samples that are obtained at 5 min, 15 min, 30 min, and 1 h after intravenous administration, the plasma were diluted 10 times) was taken, added with 200 μL of a solution of internal standard propranolol in acetonitrile (50 ng/ml), and vortexed mixed. The mixture was then added with 100 μL of pure water, and vortexed and mixed again. It was centrifuged at 4000 rpm for 5 min, and the supernatant was collected for LC-MS analysis. LC-MS detection conditions were as follows. • Chromatographic column: Thermo Scientific HYPERSIL GOLD C-18 UPLC column, 100*2.1 mm, 1.7 μm. • Mobile phase: water (with 0.1% formic acid)-acetonitrile; gradient elution was performed according to the table below.
After blood drug concentrations was detected by LC-MS, WinNonlin 6.1 software was used to calculate pharmacokinetic parameters based on non-compartmental model.

The compound `C[C@@H](c1nc2ccc(C(=O)O)nc2n1C[C@@H]1CCO1)N1CCC(c2cccc(OCc3ccc(Cl)cc3F)n2)CC1` [Example 12, 2-((S)-1-(4-(6-((4-chloro-2-fluorobenzyl)oxy)pyridin-2-yl)piperidin-1-yl)ethyl)-3-(((S)-oxetan-2-yl)methyl)-3H-imidazolo[4,5-b]pyridin-5-carboxylic acid] returned an EC50 at human GLP-1 R of 3.89 nM. In addition, in data set [1], the F is given as 168.2%. In data set [1] (iv, 1 mg/kg, i.v), this compound gave an AUC(0-t) of 1700 ng·h/mL, a Cmax of 2250 ng/mL, a clearance of 9.79 mL/min/kg and a half-life of 0.87 h. In data set [1] (po, 5 mg/kg, p.o), this compound gave an AUC(0-t) of 14300 ng·h/mL, a Cmax of 3780 ng/mL and a half-life of 2.69 h.

For `C[C@@H](c1nc2ccc(C(=O)O)cc2n1C[C@@H]1CCO1)N1CCC(c2cccc(OCc3ccc(Cl)cc3F)n2)CC1` [Example 1A, 2-((S)-1-(4-(6-((4-chloro-2-fluorobenzyl)oxy)pyridin-2-yl)piperidin-1-yl)ethyl)-1-(((S)-oxetan-2-yl)methyl)-1H-benzo[d]imidazol-6-carboxylic acid], on human GLP-1 R, the EC50 was 1.71 nM. The same compound displayed a F in data set [1] of 49.0%. Also, in data set [1] (iv, 1 mg/kg, i.v), the AUC(0-t) was 2430 ng·h/mL, the peak level (Cmax) was 2310 ng/mL, the clearance was determined as 6.88 mL/min/kg and the half-life is 2.89 h. In data set [1] (po, 5 mg/kg, p.o), this compound gave an AUC(0-t) of 5950 ng·h/mL, a Cmax of 747 ng/mL and a half-life of 3.4 h.

The compound `C[C@@H](c1nc2ccc(C(=O)O)cc2n1C[C@@H]1CCO1)N1CCN(c2cc(C#N)cc(OCc3ccc(C#N)cc3F)n2)CC1` [Example 45, 2-((S)-1-(4-(4-cyano-6-((4-cyano-2-fluorobenzyl)oxo)pyridin-2-yl)piperazin-1-yl)ethyl)-1-(((S)-oxetan-2-yl)methyl)-1H-benzo[d]imidazol-6-carboxylic acid] showed an EC50 on human GLP-1 R of 24.6 nM.

With `C[C@@H](c1nc2ccc(C(=O)O)cc2n1C[C@@H]1CCO1)N1CCN(c2cccc(OCc3ccc(Cl)cc3F)n2)CC1` [Example 39A], the EC50 at human GLP-1 R is 15.5 nM.

For `C[C@@H](c1nc2ccc(C(=O)O)cc2n1C[C@@H]1CCO1)N1CCC(c2cccc(OCc3ccc4cnn(CC(F)(F)F)c4c3)n2)CC1` [Example 9, 1-(((S)-oxetan-2-yl)methyl)-2-((S)-1-(4-(6-((1-(2,2,2-trifluoroethyl)-1H-indazol-6-yl)methoxy)pyridin-2-yl)piperidin-1-yl)ethyl)-1H-benzo[d]imidazol-6-carboxylic acid], the EC50 at human GLP-1 R amounted to 3.48 nM.

As to `C[C@@H](c1nc2ccc(C(=O)O)cc2n1C[C@@H]1CCO1)N1CCN(c2cc(C(F)(F)F)cc(OCc3ccc(C#N)cc3F)n2)CC1` [Example 44, 2-((S)-1-(4-(6-((4-cyano-2-fluorobenzyl)oxy)-4-(trifluoromethyl)pyridin-2-yl)piperazin-1-yl)ethyl)-1-(((S)-oxetan-2-yl)methyl)-1H-benzo[d]imidazol-6-carboxylic acid], in data set [1], the F came out at 57.3%. In data set [1] (iv, 1 mg/kg, i.v), this compound had an AUC(0-t) of 2260 ng·h/mL, a Cmax of 4360 ng/mL, a clearance of 7.37 mL/min/kg and a half-life of 0.69 h. Moreover, in data set [1] (po, 5 mg/kg, p.o), the AUC(0-t) came out at 6470 ng·h/mL, the highest level (Cmax) was 1410 ng/mL and the half-life is 2.9 h.

With `C[C@@H](c1nc2ccc(C(=O)O)nc2n1C[C@@H]1CCO1)N1CCC(c2cccc(OCc3ccc(C#N)cc3F)n2)CC1` [Example 15, 2-((S)-1-(4-(6-((4-cyano-2-fluorobenzyl)oxy)pyridin-2-yl)piperidin-1-yl)ethyl)-3-(((S)-oxetan-2-yl)methyl)-3H-imidazo[4,5-b]pyridin-5-carboxylic acid], a half-maximal effect on human GLP-1 R (EC50) was put at 2.57 nM.

Consider `C[C@@H](c1nc2ccc(C(=O)O)cc2n1C[C@@H]1CCO1)N1CCN(c2ncc(F)c(OCc3ccc(C#N)cc3F)n2)CC1` [Example 42, 2-((S)-1-(4-(4-((4-cyano-2-fluorobenzyl)oxy)-5-fluoropyrimidin-2-yl)piperazin-1-yl)ethyl)-1-(((S)-oxetan-2-yl)methyl)-1H-benzo[d]imidazol-6-carboxylic acid], for which the EC50 on human GLP-1 R stood at 12 nM.

On human GLP-1 R, `C[C@@H](c1nc2ccc(C(=O)O)nc2n1C[C@@H]1CCO1)N1CCC(c2cccc(OCc3ccc4cnn(CC(F)(F)F)c4c3)n2)CC1` [Example 17, 3-(((S)-oxetan-2-yl)methyl)-2-((S)-1-(4-(6-((1-(2,2,2-trifluoroethyl)-1H-indazol-6-yl)methoxy)pyridin-2-yl)piperidin-1-yl)ethyl)-3H-imidazo[4,5-b]pyridin-5-carboxylic acid] came in with a 50% effective concentration (EC50) of 2.92 nM.

The compound `C[C@@H](c1nc2ccc(C(=O)O)cc2n1C[C@@H]1CCO1)N1CCC(c2cccc(OCc3ccc4cnn(CC(F)F)c4c3)n2)CC1` [Example 8, 2-((S)-1-(4-(6-((1-(2,2-difluoroethyl)-1H-indazol-6-yl)methoxy)pyridin-2-yl)piperidin-1-yl)ethyl)-1-(((S)-oxetan-2-yl)methyl)-1H-benzo[d]imidazol-6-carboxylic acid] yielded an EC50 at human GLP-1 R of 10.3 nM.

For `C[C@@H](c1nc2ccc(C(=O)O)nc2n1C[C@@H]1CCO1)N1CCC(c2cccc(OCc3ccc4cnn(CC(F)F)c4c3)n2)CC1` [Example 11, 2-((S)-1-(4-(6-((1-(2,2-difluoroethyl)-1H-indazol-6-yl)methoxy)pyridin-2-yl)piperidin-1-yl)ethyl)-3-(((S)-oxetan-2-yl)methyl)-3H-imidazo[4,5-b]pyridin-5-carboxylic acid], a half-maximal response on human GLP-1 R (EC50) required 3.45 nM.

As for `C[C@@H](c1nc2ccc(C(=O)O)cc2n1C[C@@H]1CCO1)N1CCC(c2cccc(OCc3ccc(Br)cc3F)n2)CC1` [Example 13, 2-((S)-1-(4-(6-((4-bromo-2-fluorobenzyl)oxy)pyridin-2-yl)piperidin-1-yl)ethyl)-1-(((S)-oxetan-2-yl)methyl)-1H-benzo[d]imidazol-6-carboxylic acid], a half-maximal response at human GLP-1 R (EC50) required 18.7 nM.

In the case of `C[C@@H](c1nc2ccc(C(=O)O)nc2n1C[C@@H]1CCO1)N1CCC(c2cccc(OCc3cccc4cc(F)cnc34)n2)CC1` [Example 19, 2-((S)-1-(4-(6-((3-fluoroquinolin-8-yl)methoxy)pyridin-2-yl)piperidin-1-yl)ethyl)-3-(((S)-oxetan-2-yl)methyl)-3H-imidazo[4,5-b]pyridin-5-carboxylic acid], on human GLP-1 R, the concentration for a half-maximal effect (EC50) is 3.94 nM.

Regarding `C[C@@H](c1nc2ccc(C(=O)O)nc2n1C[C@@H]1CCO1)N1CCC(c2cccc(OCc3ccnc4cc(F)ccc34)n2)CC1` [Example 18, 2-((S)-1-(4-(6-((7-fluoroquinolin-4-yl)methoxy)pyridin-2-yl)piperidin-1-yl)ethyl)-3-(((S)-oxetan-2-yl)methyl)-3H-imidazo[4,5-b]pyridine-5-carboxylic acid], a half-maximal response on human GLP-1 R (EC50) required 2.66 nM.

Take `C[C@@H](c1nc2ccc(C(=O)O)cc2n1C[C@@H]1CCO1)N1CCC(c2cccc(OCc3ccc(Cl)cc3F)n2)C(O)C1` (stereo partly drawn) [Example 31, 2-((1S)-1-((3,4-trans)-4-(6-((4-chloro-2-fluorobenzyl)oxy)pyridin-2-yl)-3-hydroxypiperidin-1-yl)ethyl)-1-(((S)-oxetan-2-yl)methyl)-1H-benzo[d]imidazol-6-carboxylic acid]: a half-maximal response on human GLP-1 R (EC50) required 14.4 nM.
